Reference: US6340764B1, “Reference compound for use in the analysis of levosimendan batches” (Orion Corporation, priority 1998, dated 2002)

Test system: bacterial mutagenity test (Ames test)
Test: bacterial mutagenity test (Ames test)
Assay type: cell-based

Structure (SMILES)	genotoxic / mutagenic properties in the bacterial mutagenity test (Ames test)
CC1CC(=O)NN=C1c1ccc(NN=C(C#N)C#N)cc1 (single isomer, unassigned; (-)) [levosimendan, (−)-enantiomer of [[4-(1,4,5,6-tetrahydro-4-methyl-6-oxo-3-pyridazinyl)phenyl]hydrazono]propanedinitrile]	show potential genotoxic properties occasionally
CC1CC(=O)OC1(N=[N+]=[N-])c1ccc(NN=C(C#N)C#N)cc1 (centres unmarked) [Compound (I), [[4-(2-azido-3-methyl-5-oxotetrahydrofuran-2-yl)phenyl]hydrazono]propanedinitrile]	potent mutagen
